Assay results as given in ChEMBL document CHEMBL1156052, “Discovery of 1-[4-(3-chlorophenylamino)-1-methyl-1H-pyrrolo[3,2-c]pyridin-7-yl]-1-morpholin-4-ylmethanone (GSK554418A), a brain penetrant 5-azaindole CB2 agonist for the treatment of chronic pain” (J Med Chem, 2009).
In brackets after ≈: the same amount, converted by molar mass. Activity calls are given as the source filed them. No cut-off for these calls is given here.

Tests used:
[1] = Solubility in simulated intestinal fluid at pH 5; type: physicochemical
Cannabinoid receptor 1 [2] = target: T1, Cannabinoid receptor 1 (Homo sapiens, UniProt P21554); test: Agonist activity at human recombinant cannabinoid CB1 receptor expressed in MMY23 Saccharomyces cerevisiae assessed as degradation of FDGlu to fluorescein after 24 hrs by spectrofluorimetry; type: functional
T1 sequence (P21554 whole entry): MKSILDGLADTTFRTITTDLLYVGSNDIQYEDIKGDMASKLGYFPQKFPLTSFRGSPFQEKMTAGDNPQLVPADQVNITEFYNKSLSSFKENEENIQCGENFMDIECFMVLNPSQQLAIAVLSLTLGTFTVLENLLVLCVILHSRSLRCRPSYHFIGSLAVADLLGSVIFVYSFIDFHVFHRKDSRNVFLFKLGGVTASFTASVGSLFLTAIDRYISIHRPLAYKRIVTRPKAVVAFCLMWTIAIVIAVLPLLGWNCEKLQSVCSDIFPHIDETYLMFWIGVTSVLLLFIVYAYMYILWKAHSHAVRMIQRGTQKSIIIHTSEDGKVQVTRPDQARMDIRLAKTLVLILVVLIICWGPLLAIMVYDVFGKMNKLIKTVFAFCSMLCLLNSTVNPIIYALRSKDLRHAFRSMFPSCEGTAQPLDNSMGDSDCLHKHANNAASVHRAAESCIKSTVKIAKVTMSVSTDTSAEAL

Cannabinoid receptor 2 [3] = target: T2, Cannabinoid receptor 2 (Homo sapiens, UniProt P34972); test: Agonist activity at human recombinant cannabinoid CB2 receptor expressed in MMY23 Saccharomyces cerevisiae assessed as degradation of FDGlu to fluorescein after 24 hrs by spectrofluorimetry; type: functional
T2 sequence (P34972 whole entry): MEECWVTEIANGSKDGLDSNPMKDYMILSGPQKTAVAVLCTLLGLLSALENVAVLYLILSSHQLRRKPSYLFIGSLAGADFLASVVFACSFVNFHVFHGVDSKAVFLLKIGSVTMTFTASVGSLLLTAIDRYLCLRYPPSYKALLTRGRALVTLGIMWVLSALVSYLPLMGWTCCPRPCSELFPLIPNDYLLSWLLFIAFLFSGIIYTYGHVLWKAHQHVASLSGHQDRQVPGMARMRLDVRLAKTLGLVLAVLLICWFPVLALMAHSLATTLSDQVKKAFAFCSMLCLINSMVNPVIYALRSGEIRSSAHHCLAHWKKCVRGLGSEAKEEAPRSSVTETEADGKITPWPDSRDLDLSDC

Cannabinoid receptor 2 [4] = target: T2, Cannabinoid receptor 2; test: Agonist activity at human recombinant cannabinoid CB2 receptor expressed in MMY23 Saccharomyces cerevisiae assessed as degradation of FDGlu to fluorescein after 24 hrs by spectrofluorimetry relative to HU210; type: functional
Cannabinoid receptor 1 [5] = target: T1, Cannabinoid receptor 1; test: Agonist activity at human recombinant cannabinoid CB1 receptor expressed in MMY23 Saccharomyces cerevisiae assessed as degradation of FDGlu to fluorescein after 24 hrs by spectrofluorimetry relative to HU210; type: functional
Cannabinoid receptor 1 [6] = target: T1, Cannabinoid receptor 1; test: Agonist activity at human recombinant cannabinoid CB1 receptor expressed in MMY23 Saccharomyces cerevisiae assessed as degradation of FDGlu to fluorescein at 30 uM after 24 hrs by spectrofluorimetry; type: functional
Homo sapiens = organism: Homo sapiens; test: Selectivity ratio of EC50 for human recombinant cannabinoid CB1 receptor to EC50 for human recombinant cannabinoid CB2 receptor
Rattus norvegicus [7] = test: Analgesic activity in rat joint model of chronic pain at 1 to 10 mg/kg, po BID for 5 days; type: functional, organism-based
Cytochrome P450 3A4 = Cytochrome P450 3A4 (Homo sapiens, UniProt P08684); test: Inhibition of CYP3A4; type: ADME
Chain of Cytochrome P450 3A4 (P08684 whole entry): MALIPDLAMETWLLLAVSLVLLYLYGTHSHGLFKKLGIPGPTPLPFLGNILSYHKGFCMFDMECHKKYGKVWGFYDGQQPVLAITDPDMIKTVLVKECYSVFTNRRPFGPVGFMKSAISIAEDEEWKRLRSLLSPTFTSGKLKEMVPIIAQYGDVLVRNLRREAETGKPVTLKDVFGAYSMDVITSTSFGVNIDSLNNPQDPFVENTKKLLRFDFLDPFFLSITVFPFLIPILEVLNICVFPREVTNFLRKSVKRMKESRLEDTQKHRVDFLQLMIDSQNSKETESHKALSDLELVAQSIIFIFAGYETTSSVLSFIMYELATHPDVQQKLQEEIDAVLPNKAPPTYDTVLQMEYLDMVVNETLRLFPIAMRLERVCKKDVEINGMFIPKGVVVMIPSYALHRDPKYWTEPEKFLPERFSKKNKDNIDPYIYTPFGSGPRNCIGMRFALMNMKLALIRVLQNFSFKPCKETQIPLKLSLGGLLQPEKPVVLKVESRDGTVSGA

Cytochrome P450 2C9 = Cytochrome P450 2C9 (Homo sapiens, UniProt P11712); test: Inhibition of CYP2C9; type: ADME
Chain of Cytochrome P450 2C9 (P11712 whole entry): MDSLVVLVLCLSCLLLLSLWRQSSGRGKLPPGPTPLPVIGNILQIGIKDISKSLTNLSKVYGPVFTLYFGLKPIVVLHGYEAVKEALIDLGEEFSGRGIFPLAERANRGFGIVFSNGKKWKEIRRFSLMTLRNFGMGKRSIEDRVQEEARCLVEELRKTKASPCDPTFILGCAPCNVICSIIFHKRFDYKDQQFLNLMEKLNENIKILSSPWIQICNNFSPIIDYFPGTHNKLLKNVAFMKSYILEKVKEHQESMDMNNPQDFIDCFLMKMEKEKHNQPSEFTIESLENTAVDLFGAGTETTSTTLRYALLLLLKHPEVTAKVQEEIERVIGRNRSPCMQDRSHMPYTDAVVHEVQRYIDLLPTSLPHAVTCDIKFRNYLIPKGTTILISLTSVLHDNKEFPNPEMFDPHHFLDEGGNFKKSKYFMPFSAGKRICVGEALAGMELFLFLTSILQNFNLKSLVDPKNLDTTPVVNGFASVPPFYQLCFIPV

[8] = Intrinsic clearance in human liver microsomes; type: ADME, Microsome
[9] = Dissociation constant, pKa of the compound; type: physicochemical
[10] = Ratio of drug level in brain to blood in mouse; type: ADME, tissue-based
Cytochrome P450 2C19 = Cytochrome P450 2C19 (Homo sapiens, UniProt P33261); test: Inhibition of CYP2C19; type: ADME
Chain of Cytochrome P450 2C19 (P33261 whole entry): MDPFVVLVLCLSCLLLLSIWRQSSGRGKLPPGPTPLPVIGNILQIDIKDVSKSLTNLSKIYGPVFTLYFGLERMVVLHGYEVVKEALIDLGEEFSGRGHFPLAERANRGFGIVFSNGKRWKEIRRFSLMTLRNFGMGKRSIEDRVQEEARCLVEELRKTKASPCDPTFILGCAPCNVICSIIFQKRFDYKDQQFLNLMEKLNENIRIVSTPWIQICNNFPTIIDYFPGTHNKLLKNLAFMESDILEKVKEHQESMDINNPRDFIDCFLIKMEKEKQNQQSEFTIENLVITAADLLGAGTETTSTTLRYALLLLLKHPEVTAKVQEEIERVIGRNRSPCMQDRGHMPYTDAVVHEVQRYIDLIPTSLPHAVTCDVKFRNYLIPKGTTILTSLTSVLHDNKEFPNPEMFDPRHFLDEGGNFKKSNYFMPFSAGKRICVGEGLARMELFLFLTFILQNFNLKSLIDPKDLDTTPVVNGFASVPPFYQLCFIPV

[11] = Efflux ratio of apparent permeability […] side of MDR1-expressing MDCK2 cells after 60 mins by liquid scintillation counting; type: ADME, cell-based, Canis lupus familiaris; settings: dog, mdck-ii, 1 h
Cytochrome P450 1A2 = Cytochrome P450 1A2 (Homo sapiens, UniProt P05177); test: Inhibition of CYP1A2; type: ADME
Chain of Cytochrome P450 1A2 (P05177 whole entry): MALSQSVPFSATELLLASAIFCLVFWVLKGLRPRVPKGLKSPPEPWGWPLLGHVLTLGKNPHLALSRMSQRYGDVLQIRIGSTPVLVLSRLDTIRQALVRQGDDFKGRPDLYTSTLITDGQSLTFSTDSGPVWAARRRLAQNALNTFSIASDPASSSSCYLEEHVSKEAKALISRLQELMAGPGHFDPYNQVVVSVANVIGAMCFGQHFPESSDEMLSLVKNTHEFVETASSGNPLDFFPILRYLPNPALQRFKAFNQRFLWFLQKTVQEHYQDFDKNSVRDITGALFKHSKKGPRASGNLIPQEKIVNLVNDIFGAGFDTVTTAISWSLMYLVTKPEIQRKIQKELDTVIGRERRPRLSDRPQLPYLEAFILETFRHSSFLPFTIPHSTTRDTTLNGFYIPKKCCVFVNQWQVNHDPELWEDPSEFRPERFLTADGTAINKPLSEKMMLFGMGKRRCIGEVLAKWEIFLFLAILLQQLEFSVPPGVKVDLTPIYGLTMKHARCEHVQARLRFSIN

Rattus norvegicus [12] = test: Antihyperalgesic activity in po dosed complete Freund's adjuvant rat model of inflammatory pain assessed as reduction of hypersensitivity administered as single dose; type: functional
Cytochrome P450 2D6 = Cytochrome P450 2D6 (Homo sapiens, UniProt P10635); test: Inhibition of CYP2D6; type: ADME
Chain of Cytochrome P450 2D6 (P10635 whole entry): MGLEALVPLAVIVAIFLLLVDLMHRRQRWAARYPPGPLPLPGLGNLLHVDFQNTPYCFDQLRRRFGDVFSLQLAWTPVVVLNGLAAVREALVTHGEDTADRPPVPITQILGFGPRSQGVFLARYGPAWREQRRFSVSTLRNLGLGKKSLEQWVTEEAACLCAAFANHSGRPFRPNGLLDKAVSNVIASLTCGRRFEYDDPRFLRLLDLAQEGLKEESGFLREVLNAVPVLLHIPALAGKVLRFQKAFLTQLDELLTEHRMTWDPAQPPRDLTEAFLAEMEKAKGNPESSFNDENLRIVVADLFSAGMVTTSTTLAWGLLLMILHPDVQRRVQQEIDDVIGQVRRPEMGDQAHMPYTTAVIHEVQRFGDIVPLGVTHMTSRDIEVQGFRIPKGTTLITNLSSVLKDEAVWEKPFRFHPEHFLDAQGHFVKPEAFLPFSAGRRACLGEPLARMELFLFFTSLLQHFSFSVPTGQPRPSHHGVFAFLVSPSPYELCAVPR

[13] = Intrinsic clearance in rat liver microsomes; type: ADME, Microsome
Rattus norvegicus [14] = test: Analgesic activity in rat joint model of chronic pain at 5 mg/kg, po BID for 5 days; type: functional, organism-based; set-up: dose 5 mg/kg

| Structure (SMILES) | EC50 (Cannabinoid receptor 1 [2]) [µM] | EC50 (Cannabinoid receptor 2 [3]) [µM] | Efficacy (Cannabinoid receptor 2 [4]) [%] | further results |
| --- | --- | --- | --- | --- |
| O=C(NCC1CCOCC1)c1cnc(Nc2ccc(Cl)cc2Cl)nc1C(F)(F)F [GW842166X] | > 30 | – | – | solubility [1]: 10 µg/mL (≈ 22.3 µM) |
| Cc1c[nH]c2c(NC3CCOCC3)ncc(C(=O)N3CCOCC3)c12 | > 30 | 3.3 | 84 | – |
| Cc1c[nH]c2c(Nc3cccc(Cl)c3)ncc(C(=O)N3CCCC3)c12 | > 30 | 0.153 | 68 | – |
| Cc1c[nH]c2c(Nc3cccc(Cl)c3)ncc(C(=O)N3CCCCC3)c12 | 4 | 0.014 | 73 | Efficacy (Cannabinoid receptor 1 [5]): 32% |
| Cc1c[nH]c2c(Nc3cccc(Cl)c3)ncc(C(=O)NCc3ccc(F)cc3)c12 | > 30 | 0.145 | 58 | – |
| COc1ccccc1Nc1ncc(C(=O)N2CCOCC2)c2c(C)c[nH]c12 | > 10 | 0.349 | 72 | Activity (Cannabinoid receptor 1 [6]): inactive; Ratio EC50 (Homo sapiens): > 100 |
| Cc1c[nH]c2c(Nc3cccc(Cl)c3)ncc(C(=O)N3CCC3)c12 | > 30 | 0.504 | 66 | – |
| Cc1c[nH]c2c(Nc3cccc(Cl)c3)ncc(C(=O)N3CCCCCC3)c12 | > 30 | 0.107 | 76 | – |
| Cc1c[nH]c2c(Nc3cccc(Cl)c3)ncc(C(=O)N3CCOCC3)c12 | 10 | 0.011 | 82 | Activity (Rattus norvegicus [7]): inactive; IC50 (Cytochrome P450 3A4): 48 µM; IC50 (Cytochrome P450 2C9): 4.7 µM; CLint scaled [8]: 1.6 mL/min/kg; Efficacy (Cannabinoid receptor 1 [5]): 74%; pKa [9]: 5.8; solubility [1]: 160 µg/mL (≈ 431 µM); Ratio EC50 (Homo sapiens): 1000; Kp [10]: < 0.05; IC50 (Cytochrome P450 2C19): 29 µM; Ratio [11]: 74; IC50 (Cytochrome P450 1A2): 28 µM; ED50 (Rattus norvegicus [12]): 0.12 mg/kg; IC50 (Cytochrome P450 2D6): 14 µM; CLint scaled [13]: 1.4 mL/min/kg |
| CS(=O)(=O)c1ccc(C2=C(c3ccccc3)C(=O)OC2)cc1 [ROFECOXIB] | – | – | – | Ratio [11]: 74; Activity (Rattus norvegicus [14]): Active |
